Results taken from US10179816B2, “Pharmaceutical compositions comprising an antibody which binds the human anti-Müllerian hormone receptor type II” (LABORATOIRE FRANCAIS DU FRACTIONNEMENT DES BIOTECHNOLOGIES, priority 2011, dated 2019).
Several values for one entry are separate records, joined by “and”; a condition that tells them apart may be missing. Equal entries are not always repeated. Entries after “also recorded” stand apart in the source; their conditions may differ.

Assays:
[1] = Body weight of the mice, carboplatin combination study; format: in vivo; conditions: for Individual body weight of the mice: one value per mouse
Description: Moreover, to identify whether the treatment has a toxic effect, the weight of the mice was monitored individually once a week.

[2] = system: Cov434-AMHRII Asc1a5 (cell line of human ovarian cancer transfected with cDNA AMHRII); experiment: Anti-tumour activity of 3C23K alone or with carboplatin in Cov434-AMHRII Asc1a5 xenograft (tumour volume, T/C ratio, statistical analysis); format: in vivo, female Swiss nude mouse; conditions: for Anti-tumour activity (in words): carboplatin study, comparator as stated in the sentence
Experimental: The 3C23K antibody was evaluated according to the following scheme: 2 times per week for 6 weeks, for a total of 12 injections at about 10 mg/kg/injection, said administration regimen being designated below as “Q3-4D12”. Another group of mice was treated with an irrelevant antibody LFB-R565, administered at about 10 mg/kg/injection, according to the regimen Q3-4D12.
Carboplatin was evaluated, at a sub-optimum dose, i.e. about 60 mg/kg/injection, according to the following scheme: once a week, for 4 weeks, said administration regimen being designated below as “Q7D4”.
Carboplatin was also evaluated in combination with the 3C23K antibody or with the irrelevant antibody LFB-R565. Carboplatin was administered at about 60 mg/kg/injection according to the Q7D4 regimen and the 3C23K antibody or the irrelevant antibody LFB-R565 at about 10 mg/kg/injection according to the regimen Q3-4D12.
The mice were randomized on D11, when the volume of the tumours was between 50 and 158 mm^3, and the treatments began on D13 (9 mice per group).
The tumours were usually measured twice weekly.
The curves of the individual volume of the tumours were plotted.
In one experiment with 9 mice per group, the curves and analyses were therefore stopped when fewer than 8 values per group had been obtained (8 mice alive).
A Kruskal-Wallis test was also carried out.

[3] = system: Cov434-AMHRII Asc1a5 tumour cells;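 further: control mice received NaCl solution, survival endpoint was euthanasia once tumour volume hit 2000 mm^3 or on ethical grounds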
Description: A solution of NaCl was used as the control.
(§1) The animals were sacrificed when the tumour volumes reached 2000 mm^3 or for ethical reasons. The curves of mean values and median values as well as the statistical analyses were stopped when 20% of the mice in the group were dead.

[4] = system: Cov434-AMHRII Asc1a5 tumour cells (a cell line of human ovarian cancer); experiment: Anti-tumour activity of 3C23K alone or with paclitaxel in Cov434-AMHRII Asc1a5 xenograft (tumour volume, T/C ratio, statistical analysis); conditions: for Kruskal-Wallis Test: contrast vs control; for Individual tumour volume: individual mice;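 on all read-outs here: subcutaneous Cov434-AMHRII Asc1a5 xenografts in female Swiss nude mice, tumour volume from length×width×height/2 in mm^3, randomized D13, dosing from D14, 8 mice per group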
Experimental: Female Swiss nude mice (Harlan Laboratories) were injected subcutaneously (s.c.) with 7.10^6 cells of Cov434-AMHRII Asc1a5 (cell line of human ovarian cancer transfected with cDNA AMHRII) in Matrigel (1:1 ratio) under a volume of 150 μL on day 0 (D0).
The mice were randomized on D13, when the volume of the tumours was between 58 and 150 mm^3, and the treatments began on D14 (8 mice per group).
The tumours were usually measured twice weekly. Tumour volume (TV) was calculated using the following formula, in which the length corresponds to the largest of the tumour diameters, the width corresponds to the smallest of the tumour diameters and the tumour height: TV (mm^3)=(length×width×height)/2.
In addition, for each group, curves of tumour growth were plotted using the calculated mean tumour volumes or the median tumour volumes.
as §1
In one experiment with 8 mice per group, the curves and analyses were stopped when fewer than 7 values per group had been obtained (7 mice alive).
The statistical differences between the different groups were analysed by ANOVA comparison using the Statgraphics centurion XV software.
The ANOVA table breaks down the variance into two components: an inter-group component and an intra-group component. The ratio F is the ratio of the inter-group estimate to the intra-group estimate. When the P value of test F is greater than or equal to 0.05, there is no statistically significant difference between the mean values of the two groups, with a confidence level of 95%. P values less than 0.05 indicate a significant difference between the mean values of the two groups with a confidence level of 95%.
A Kruskal-Wallis test was also carried out. When the P value is greater than or equal to 0.05, there is no statistically significant difference between the median of the two groups, with a confidence level of 95%. P values less than 0.05 indicate a significant difference between the medians of the two groups with a confidence level of 95%.
The treatment is initiated on day 14 after injection.

[5] = D11, randomization, before treatment
[6] = Day 13, randomization, before treatment

With N.N.O=C([O-])C1(C(=O)[O-])CCC1.[Pt+2] [carboplatin, reference compound] the “Individual body weight of the mice” value ([1]; D11 (Sep. 19, 2011)) was 22.3 (2×) and 25.8 and 23.0 and 27.1 and 23.3 and 24.5 and 22.7 and 20.4, the “Individual body weight of the mice” value ([1]; D18 (Sep. 26, 2011), in g (unit assumed)) was 22.2 and 24.6 and 22.6 and 26.1 and 24.4 and 25.4 and 23.6 and 20.3 and 22.0 and the “Individual body weight of the mice” value ([1]; D25 (Oct. 3, 2011)) was 27.6 and 28.3 and 25.6 (2×) and 32.7 and 27.0 and 29.4 and 24.2 and 26.0. For the same compound, the “Individual body weight of the mice” value ([1]; D32 (Oct. 10, 2011)) was 23.7 and 24.5 and 23.6 (2×) and 28.0 and 23.1 (2×) and 21.1 and 20.2, the “Individual body weight of the mice” value ([1]; D39 (Oct. 17, 2011), in g (unit assumed)) was 24.3 and 23.9 and 25.1 and 27.2 and 25.4 and 22.4 and 20.0 and 21.0 and 23.3 and the “Individual body weight of the mice” value ([1]; D46 (Oct. 24, 2011)) was 25.4 and 25.7 (2×) and 26.4 and 21.7 and 21.0 and 25.0. The Mean body weight of the mice ([1]; Day 11 (before treatment)) was 23.5 g, the Mean body weight of the mice ([1]; Day 18) was 23.5 g and the Mean body weight of the mice ([1]; Day 25) was 27.4 g. For the same compound, the Mean body weight of the mice ([1]; Day 32) was 23.4 g, the Mean body weight of the mice ([1]; Day 39) was 23.6 g and the “Effect on body weight / toxic effect (in words)” value ([1]; carboplatin study) was “not regarded as a toxic effect”. For the same compound, the “Decrease in body weight” value ([1]; on D32 in comparison with D25, after the third injection of carboplatin) was “about 15%”, the Individual tumour volume [2, 5] was 53 mm^3 and 142 mm^3 and 61 mm^3 and 102 mm^3 and 90 mm^3 and 72 mm^3 and 81 mm^3 and 70 mm^3 and 114 mm^3 and the Mean tumour volume [2, 5] was 87 mm^3. For the same compound, the Median tumour volume [2, 5] was 81 mm^3, the Individual tumour volume ([2]; D14) was 104 mm^3 and 210 mm^3 (2×) and 162 mm^3 and 126 mm^3 and 123 mm^3 and 75 mm^3 and 134 mm^3 and 168 mm^3 and the Mean tumour volume ([2]; D14) was 146 mm^3. The Median tumour volume ([2]; D14) was 134 mm^3, the Individual tumour volume ([2]; D18) was 98 mm^3 and 173 mm^3 and 112 mm^3 (2×) and 336 mm^3 and 248 mm^3 and 140 mm^3 and 90 mm^3 (2×) and the Mean tumour volume ([2]; D18) was 155 mm^3. For the same compound, the Median tumour volume ([2]; D18) was 112 mm^3, the Individual tumour volume ([2]; D22) was 378 mm^3 and 126 mm^3 and 360 mm^3 and 324 mm^3 and 363 mm^3 and 270 mm^3 and 156 mm^3 and 198 mm^3 and 168 mm^3 and the Mean tumour volume ([2]; D22) was 260 mm^3. For the same compound, the Median tumour volume ([2]; D22) was 270 mm^3, the Individual tumour volume ([2]; D25) was 140 mm^3 and 240 mm^3 and 270 mm^3 and 616 mm^3 and 152 mm^3 and 358 mm^3 and 98 mm^3 and 243 mm^3 and 210 mm^3 and the Mean tumour volume ([2]; D25) was 258 mm^3. For the same compound, the Median tumour volume ([2]; D25) was 240 mm^3, the Individual tumour volume ([2]; D29) was 270 mm^3 and 200 mm^3 and 360 mm^3 (2×) and 768 mm^3 and 363 mm^3 and 168 mm^3 and 420 mm^3 and the Mean tumour volume ([2]; D29) was 344 mm^3. For the same compound, the Median tumour volume ([2]; D29) was 360 mm^3, the Individual tumour volume ([2]; D32) was 351 mm^3 and 243 mm^3 and 578 mm^3 and 864 mm^3 and 653 mm^3 and 504 mm^3 and 220 mm^3 and 462 mm^3 and the Mean tumour volume ([2]; D32) was 461 mm^3. The Median tumour volume ([2]; D32) was 462 mm^3, the Individual tumour volume ([2]; D36) was 630 mm^3 and 424 mm^3 and 1148 mm^3 and 1610 mm^3 and 893 mm^3 and 462 mm^3 and 308 mm^3 and 774 mm^3 and the Mean tumour volume ([2]; D36) was 760 mm^3. The Median tumour volume ([2]; D36) was 630 mm^3, the Individual tumour volume ([2]; D39) was 660 mm^3 and 484 mm^3 and 1134 mm^3 and 1495 mm^3 and 1488 mm^3 and 447 mm^3 and 347 mm^3 and 910 mm^3 and 423 mm^3 and the Mean tumour volume ([2]; D39) was 821 mm^3. For the same compound, the Median tumour volume ([2]; D39) was 660 mm^3, the Individual tumour volume ([2]; D43) was 864 mm^3 and 592 mm^3 and 1881 mm^3 and 2112 mm^3 and 2038 mm^3 and 882 mm^3 and 438 mm^3 and 1105 mm^3 and 672 mm^3 and the Mean tumour volume ([2]; D43) was 1176 mm^3. The Median tumour volume ([2]; D43) was 882 mm^3, the Individual tumour volume ([2]; D46) was 1071 mm^3 and 501 mm^3 and 2205 mm^3 and 810 mm^3 and 378 mm^3 and 1450 mm^3 and 878 mm^3 and the Individual tumour volume ([2]; D49) was 1568 mm^3 and 819 mm^3 and 1125 mm^3 and 480 mm^3 and 1650 mm^3 and 980 mm^3. For the same compound, the “Anti-tumour activity (in words)” value [2] was “anti-tumour effect; also recorded: exerts anti-tumour activity”, the “Anti-tumour activity (in words)” value ([2]; listed as Carboplatin) was “significant anti-tumour activity” and the T/C ratio ([2]; relative to Control group, D11 (before treatment)) was 89%. For the same compound, the T/C ratio ([2]; relative to Control group, D14) was 82%, the T/C ratio ([2]; relative to Control group, D18) was 52% and the T/C ratio ([2]; relative to Control group, D22) was 69%. The T/C ratio ([2]; relative to Control group, D25) was 54%, the T/C ratio ([2]; relative to Control group, D29) was 56% and the T/C ratio ([2]; relative to Control group, D32) was 45%. For the same compound, the T/C ratio ([2]; relative to Control group, D36) was 40%, the T/C ratio ([2]; relative to LFB-R565 group, D11 (before treatment)) was 100% and the T/C ratio ([2]; relative to LFB-R565 group, D14) was 87%. It also gave a T/C ratio ([2]; relative to LFB-R565 group, D18) of 65%, a T/C ratio ([2]; relative to LFB-R565 group, D22) of 100% and a T/C ratio ([2]; relative to LFB-R565 group, D25) of 59%. For the same compound, the T/C ratio ([2]; relative to LFB-R565 group, D29) was 52%, the T/C ratio ([2]; relative to LFB-R565 group, D32) was 67% and the T/C ratio ([2]; relative to LFB-R565 group, D36) was 35%.
With CC(=O)O[C@H]1C(=O)[C@@]2(C)[C@H]([C@H](OC(=O)c3ccccc3)[C@]3(O)C[C@H](OC(=O)[C@H](O)[C@@H](NC(=O)c4ccccc4)c4ccccc4)C(C)=C1C3(C)C)[C@]1(OC(C)=O)CO[C@@H]1C[C@@H]2O [paclitaxel, reference compound] the “Survival parameter: logrank test chi-squared” value ([3]; contrast vs control) was 0.04, the “Survival parameter Mean” value ([3]; group of 8 mice) was 45 days and the “Survival parameter Median” value ([3]; group of 8 mice) was 45 days. For the same compound, the “survival parameter” value ([3]; individual mice, experiment ended on day 83) was 34 Days and 41 Days (2×) and 45 Days (2×) and 51 Days (2×) and 55 Days, the “Statistical analysis based on the survival parameter (in words)” value ([3]; mouse, in vivo) was “does not have an activity that is significantly different from that of the control” and the “Kruskal-Wallis Test” value ([4]; D13) was 0.04. For the same compound, the “Kruskal-Wallis Test” value ([4]; D20) was 0.47, the “Statistical analysis of tumour volume (in words)” value ([4]; D20 to D41) was “does not have an activity that is significantly different from that of the control” and the “Kruskal-Wallis Test” value ([4]; D24) was 0.28. For the same compound, the “Kruskal-Wallis Test” value ([4]; D27) was 1.10, the “Kruskal-Wallis Test” value ([4]; D31) was 0.89 and the “Kruskal-Wallis Test” value ([4]; D35) was 0.10. For the same compound, the “Kruskal-Wallis Test” value ([4]; D41) was 0.20, the Mean tumour volume [4, 6] was 97 mm^3 and the Median tumour volume [4, 6] was 90 mm^3. The Individual tumour volume ([4]; Day 13) was 126 mm3 and 117 mm3 and 98 mm3 and 83 mm3 (2×) and 66 mm3 and 144 mm3 and 58 mm3, the Mean tumour volume ([4]; Day 20) was 226 mm^3 and the Median tumour volume ([4]; Day 20) was 228 mm^3. The Individual tumour volume ([4]; Day 20) was 424 mm3 and 243 mm3 and 240 mm3 and 280 mm3 and 170 mm3 and 126 mm3 and 217 mm3 and 105 mm3, the Mean tumour volume ([4]; Day 24) was 313 mm^3 and the Median tumour volume ([4]; Day 24) was 270 mm^3. For the same compound, the Individual tumour volume ([4]; Day 24) was 756 mm3 and 257 mm3 and 356 mm3 and 284 mm3 and 380 mm3 and 180 mm3 (2×) and 110 mm3, the Median tumour volume ([4]; Day 27) was 336 mm^3 and the Individual tumour volume ([4]; Day 27) was 896 mm3 and 325 mm3 and 386 mm3 and 255 mm3 and 560 mm3 and 347 mm3 and 270 mm3 and 198 mm3. For the same compound, the Mean tumour volume ([4]; Day 31) was 589 mm^3, the Median tumour volume ([4]; Day 31) was 415 mm^3 and the Individual tumour volume ([4]; Day 31) was 1530 mm3 and 420 mm3 and 673 mm3 and 410 mm3 (2×) and 720 mm3 and 358 mm3 and 192 mm3. The Mean tumour volume ([4]; Day 35) was 1176 mm^3, the Median tumour volume ([4]; Day 35) was 986 mm^3 and the Individual tumour volume ([4]; Day 35) was 2706 mm3 and 699 mm3 and 1200 mm3 and 1008 mm3 and 1653 mm3 and 965 mm3 and 823 mm3 and 351 mm3. The Mean tumour volume ([4]; Day 41) was 1390 mm^3, the Median tumour volume ([4]; Day 41) was 1309 mm^3 and the Individual tumour volume ([4]; Day 41) was 1064 mm3 and 2380 mm3 and 1309 mm3 and 1389 mm3 and 2269 mm3 and 884 mm3 and 437 mm3. The Individual tumour volume ([4]; Day 45) was 1632 mm3 and 2040 mm3 and 2112 mm3 and 1197 mm3 and 798 mm3, the Individual tumour volume ([4]; Day 48) was 1536 mm3 and 1323 mm3 and 1232 mm3 and the Individual tumour volume ([4]; Day 51) was 2166 mm3 and 2112 mm3 and 1348 mm3. For the same compound, the Individual tumour volume ([4]; Day 55) was 2132 mm3 and the “Anti-tumour activity (in words)” value ([4]; paclitaxel study) was “modest inhibition of tumour growth”.
